Assay results reported in patent US10377753B2, “Substituted 4-azaindoles and their use as GluN2B receptor modulators” (Janssen Pharmaceutica NV, priority 2015, dated 2019).
Counter-ions that a name gives are not always drawn.

Molecular target: cloned human NR1/NR2B ion channels (Homo sapiens (Human), UniProt Q05586+Q13224)
Assay: HNR2BC: effects of test articles on cloned human NR1/NR2B ion channels expressed in mammalian cells (FLIPR calcium flux)
Assay type: cell-based
Details: cloned human NR1/NR2B, Table 5
Experimental: HNR2BC: Effects of Test Articles on Cloned Human NR1/NR2B Ion Channels Expressed in Mammalian Cells
NMDA receptors are ion channels that are highly permeable to Ca^2+ ions, rendering it possible to monitor NMDA receptor function using cell-based calcium flux assay. In this assay, co-agonists glutamate and glycine are added to cells heterologously expressing human GluN1/GluN2B NMDA receptors to initiate cellular Ca^2+ influx. The time course of the changes in intracellular calcium is measured using a fluorescent dye and a FLIPR (Fluorometric Imaging Plate Reader) device.
Twenty four hours before measurements, the expression of the NMDA receptors in the stable cell line is induced with Tet-On inducible system in the presence of a non-selective NMDA receptor blocker. On the day of the experiment, cell culture media is carefully washed and the cells are loaded with Calcium 5 Dye Kit (Molecular Devices) in dye loading buffer containing 137 mM NaCl, 4 mM KCl, 2 mM CaCl2, 0.5 mM MgCl2, 10 mM HEPES and 5 mM D-glucose; pH 7.4. After 1 h incubation at the room temperature, the dye is washed away with the assay buffer (137 mM NaCl, 4 mM KCl, 2 mM CaCl2, 0.01 mM EDTA, 10 mM HEPES and 5 mM D-glucose; pH 7.4) In the FLIPR TETRA reader, various concentrations of the test compounds are added to the cells for 5 min while fluorescence is monitored to detect potential agonist activity. Next, co-agonists, glutamate and glycine are added for another 5 minutes. The concentration of glutamate corresponding to ˜EC80 is used to maximize the assay's signal window and ability to detect NMDA receptor antagonists and negative allosteric modulators. A saturating concentration (10 μM) of glycine is also present in the assay. […] The fluorescent signal in the presence of test compounds is quantified and normalized to the signal defined by the appropriate control wells.

Sequence of cloned human NR1/NR2B ion channels (Q13224 27-1484, other chains not shown): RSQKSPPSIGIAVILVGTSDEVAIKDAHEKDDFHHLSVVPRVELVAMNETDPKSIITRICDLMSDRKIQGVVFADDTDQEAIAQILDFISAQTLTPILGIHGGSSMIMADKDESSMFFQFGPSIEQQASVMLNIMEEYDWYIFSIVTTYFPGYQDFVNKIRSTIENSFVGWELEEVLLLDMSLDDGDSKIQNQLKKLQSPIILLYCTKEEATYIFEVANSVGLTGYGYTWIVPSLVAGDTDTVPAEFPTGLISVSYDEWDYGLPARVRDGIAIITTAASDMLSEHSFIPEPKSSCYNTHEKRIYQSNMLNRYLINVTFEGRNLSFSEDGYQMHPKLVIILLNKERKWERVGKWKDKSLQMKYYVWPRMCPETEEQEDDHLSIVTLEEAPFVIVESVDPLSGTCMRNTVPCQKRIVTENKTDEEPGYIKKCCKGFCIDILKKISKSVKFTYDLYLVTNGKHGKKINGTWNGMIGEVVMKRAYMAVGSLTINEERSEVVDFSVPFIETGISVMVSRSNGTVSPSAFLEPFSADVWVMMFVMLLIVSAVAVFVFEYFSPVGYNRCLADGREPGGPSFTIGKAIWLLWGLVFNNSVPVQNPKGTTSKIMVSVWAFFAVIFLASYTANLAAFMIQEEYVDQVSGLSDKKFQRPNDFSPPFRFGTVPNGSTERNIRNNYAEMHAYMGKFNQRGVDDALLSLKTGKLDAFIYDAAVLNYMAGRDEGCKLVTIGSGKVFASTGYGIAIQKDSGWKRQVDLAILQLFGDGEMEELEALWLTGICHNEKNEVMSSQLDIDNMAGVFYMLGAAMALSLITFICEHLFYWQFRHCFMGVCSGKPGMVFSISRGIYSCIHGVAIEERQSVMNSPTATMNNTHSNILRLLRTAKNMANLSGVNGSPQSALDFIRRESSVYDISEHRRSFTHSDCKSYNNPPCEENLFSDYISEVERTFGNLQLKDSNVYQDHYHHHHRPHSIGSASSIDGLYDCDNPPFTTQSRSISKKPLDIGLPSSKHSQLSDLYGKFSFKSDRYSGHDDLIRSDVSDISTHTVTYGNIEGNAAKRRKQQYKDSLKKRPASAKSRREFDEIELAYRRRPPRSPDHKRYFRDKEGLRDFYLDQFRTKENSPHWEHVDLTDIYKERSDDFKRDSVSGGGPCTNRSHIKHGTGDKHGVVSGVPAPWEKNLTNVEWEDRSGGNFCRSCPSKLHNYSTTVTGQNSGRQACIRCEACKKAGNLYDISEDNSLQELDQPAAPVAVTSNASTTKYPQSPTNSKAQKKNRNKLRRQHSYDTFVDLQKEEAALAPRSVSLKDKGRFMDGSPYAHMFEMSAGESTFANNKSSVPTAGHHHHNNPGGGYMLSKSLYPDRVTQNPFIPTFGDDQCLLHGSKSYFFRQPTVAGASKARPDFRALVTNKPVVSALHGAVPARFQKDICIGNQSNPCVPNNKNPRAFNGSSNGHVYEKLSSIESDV

SMILES | IC50
O=C(Cn1cc(Cl)c2ncc(-c3ccc(F)cc3)cc21)N1CC(F)(F)C1 [Example 57, 2-[3-Chloro-6-(4-fluorophenyl)pyrrolo[3,2-b]pyridin-1-yl]-1-(3,3-difluoroazetidin-1-yl)ethanone] | 31.6 nM
O=C(Cn1cc(Cl)c2ncc(-c3ccc(F)cc3)cc21)N1CC(F)C1 [Example 58, 2-[3-Chloro-6-(4-fluorophenyl)pyrrolo[3,2-b]pyridin-1-yl]-1-(3-fluoroazetidin-1-yl)ethanone] | 25.1 nM
Cc1cc(Cn2ccc3ncc(-c4ccc(F)cc4C)cc32)no1 [Example 59, 3-[[6-(4-Fluoro-2-methyl-phenyl)pyrrolo[3,2-b]pyridin-1-yl]methyl]-5-methyl-isoxazole] | 39.8 nM
Cc1cc(Cn2ccc3ncc(-c4cccc(C(F)(F)F)c4)cc32)no1 [Example 60, 5-Methyl-3-[[6-[3-(trifluoromethyl)phenyl]pyrrolo[3,2-b]pyridin-1-yl]methyl]isoxazole] | 100 nM
Cc1cccc(-c2cnc3ccn(Cc4cc(C)on4)c3c2)c1 [Example 61, 5-Methyl-3-[[6-(m-tolyl)pyrrolo[3,2-b]pyridin-1-yl]methyl]isoxazole trifluoroacetate salt] | 398 nM
Cc1cc(Cn2ccc3ncc(-c4ccccc4C)cc32)no1 [Example 62, 5-Methyl-3-[[6-(o-tolyl)pyrrolo[3,2-b]pyridin-1-yl]methyl]isoxazole trifluoroacetate salt] | 126 nM
Cc1cc(Cn2ccc3ncc(-c4ccc(F)c(C)c4)cc32)no1 [Example 63, 3-[[6-(4-Fluoro-3-methyl-phenyl)pyrrolo[3,2-b]pyridin-1-yl]methyl]-5-methyl-isoxazole trifluoroacetate salt] | 200 nM
Cc1cc(Cn2ccc3ncc(-c4cc(F)cc(F)c4)cc32)no1 [Example 64, 3-[[6-(3,5-Difluorophenyl)pyrrolo[3,2-b]pyridin-1-yl]methyl]-5-methyl-isoxazole trifluoroacetate salt] | 63.1 nM
Cc1cc(Cn2ccc3ncc(-c4ccc(F)cc4)cc32)no1 [Example 65, 3-[[6-(4-Fluorophenyl)pyrrolo[3,2-b]pyridin-1-yl]methyl]-5-methyl-isoxazole trifluoroacetate salt] | 79.4 nM
Cc1cc(-c2cnc3ccn(CC(=O)NC4CCC4)c3c2)ccc1F [Example 66, N-Cyclobutyl-2-[6-(4-fluoro-3-methyl-phenyl)pyrrolo[3,2-b]pyridin-1-yl]acetamide trifluoroacetate salt] | 200 nM
Cc1cc(-c2cnc3c(Br)cn(CC(=O)N4CCC4)c3c2)ccc1F [Example 68, 1-(Azetidin-1-yl)-2-[3-bromo-6-(4-fluoro-3-methyl-phenyl)pyrrolo[3,2-b]pyridin-1-yl]ethanone] | 39.8 nM
Cc1cc(-c2cnc3c(F)cn(CC(=O)N4CCC4)c3c2)ccc1F [Example 69, 1-(Azetidin-1-yl)-2-[3-fluoro-6-(4-fluoro-3-methyl-phenyl)pyrrolo[3,2-b]pyridin-1-yl]ethanone] | 25.1 nM
Cc1cc(-c2cnc3ccn(CC(=O)O)c3c2)ccc1F [Example 70, 2-[6-(4-Fluoro-3-methyl-phenyl)pyrrolo[3,2-b]pyridin-1-yl]acetic acid] | 50.1 nM
O=C(Cn1ccc2ncc(-c3ccccc3F)cc21)N1CCC1 [Example 71, 1-(azetidin-1-yl)-2-[6-(2-fluorophenyl)pyrrolo[3,2-b]pyridin-1-yl]ethanone] | 7940 nM
O=C(Cn1ccc2ncc(-c3cccc(F)c3)cc21)N1CCC1 [Example 72, 1-(Azetidin-1-yl)-2-[6-(3-fluorophenyl)pyrrolo[3,2-b]pyridin-1-yl]ethanone] | 251 nM
Cc1ccc(-c2cnc3ccn(CC(=O)N4CCC4)c3c2)cc1 [Example 73, 1-(Azetidin-1-yl)-2-[6-(p-tolyl)pyrrolo[3,2-b]pyridin-1-yl]ethanone] | 39.8 nM
CCc1cccc(-c2cnc3ccn(CC(=O)N4CCC4)c3c2)c1 [Example 74, 1-(Azetidin-1-yl)-2-[6-(3-ethylphenyl)pyrrolo[3,2-b]pyridin-1-yl]ethanone] | 200 nM
O=C(Cn1ccc2ncc(-c3ccccc3F)cc21)NC1CC1 [Example 75, N-Cyclopropyl-2-[6-(2-fluorophenyl)pyrrolo[3,2-b]pyridin-1-yl]acetamide] | 50.1 nM
O=C(Cn1ccc2ncc(-c3cccc(F)c3)cc21)NC1CC1 [Example 76, N-Cyclopropyl-2-[6-(3-fluorophenyl)pyrrolo[3,2-b]pyridin-1-yl]acetamide] | 1000 nM
Cc1ccc(-c2cnc3ccn(CC(=O)NC4CC4)c3c2)cc1 [Example 77, N-Cyclopropyl-2-[6-(p-tolyl)pyrrolo[3,2-b]pyridin-1-yl]acetamide] | 251 nM
O=C(Cn1ccc2ncc(-c3ccccc3)cc21)N1CCCC1 [Example 78, 2-(6-Phenylpyrrolo[3,2-b]pyridin-1-yl)-1-pyrrolidin-1-yl-ethanone] | 1580 nM

Now from value to compound:

IC50 | SMILES
79.4 nM | O=C(Cn1ccc2ncc(-c3ccccc3F)cc21)N1CCCC1 [Example 79, 2-[6-(2-Fluorophenyl)pyrrolo[3,2-b]pyridin-1-yl]-1-pyrrolidin-1-yl-ethanone]
316 nM | O=C(Cn1ccc2ncc(-c3ccc(F)cc3)cc21)N1CCCC1 [Example 80, 2-[6-(4-Fluorophenyl)pyrrolo[3,2-b]pyridin-1-yl]-1-pyrrolidin-1-yl-ethanone]
316 nM | Cc1cccc(-c2cnc3ccn(CC(=O)N4CCCC4)c3c2)c1 [Example 81, 2-[6-(m-Tolyl)pyrrolo[3,2-b]pyridin-1-yl]-1-pyrrolidin-1-yl-ethanone]
63.1 nM | Cc1ccc(-c2cnc3ccn(CC(=O)N4CCCC4)c3c2)cc1 [Example 82, 2-[6-(p-Tolyl)pyrrolo[3,2-b]pyridin-1-yl]-1-pyrrolidin-1-yl-ethanone]
251 nM | CCc1cccc(-c2cnc3ccn(CC(=O)N4CCCC4)c3c2)c1 [Example 83, 2-[6-(3-Ethylphenyl)pyrrolo[3,2-b]pyridin-1-yl]-1-pyrrolidin-1-yl-ethanone]
79.4 nM | O=C(Cn1ccc2ncc(-c3cccc(F)c3)cc21)N1CCCC1 [Example 84, 2-[6-(3-Fluorophenyl)pyrrolo[3,2-b]pyridin-1-yl]-1-pyrrolidin-1-yl-ethanone]
63.1 nM | O=C(Cn1ccc2ncc(-c3ccccc3)cc21)N1CCOCC1 [Example 85, 1-Morpholino-2-(6-phenylpyrrolo[3,2-b]pyridin-1-yl)ethanone]
501 nM | O=C(Cn1ccc2ncc(-c3ccccc3F)cc21)N1CCOCC1 [Example 86, 2-[6-(2-Fluorophenyl)pyrrolo[3,2-b]pyridin-1-yl]-1-morpholino-ethanone]
1000 nM | O=C(Cn1ccc2ncc(-c3cccc(F)c3)cc21)N1CCOCC1 [Example 87, 2-[6-(3-Fluorophenyl)pyrrolo[3,2-b]pyridin-1-yl]-1-morpholino-ethanone]
251 nM | O=C(Cn1ccc2ncc(-c3ccc(F)cc3)cc21)N1CCOCC1 [Example 88, 2-[6-(4-Fluorophenyl)pyrrolo[3,2-b]pyridin-1-yl]-1-morpholino-ethanone]
200 nM | Cc1cccc(-c2cnc3ccn(CC(=O)N4CCOCC4)c3c2)c1 [Example 89, 1-Morpholino-2-[6-(m-tolyl)pyrrolo[3,2-b]pyridin-1-yl]ethanone]
63.1 nM | Cc1ccc(-c2cnc3ccn(CC(=O)N4CCOCC4)c3c2)cc1 [Example 90, 1-Morpholino-2-[6-(p-tolyl)pyrrolo[3,2-b]pyridin-1-yl]ethanone]
1580 nM | CCc1cccc(-c2cnc3ccn(CC(=O)N4CCOCC4)c3c2)c1 [Example 91, 2-[6-(3-ethylphenyl)pyrrolo[3,2-b]pyridin-1-yl]-1-morpholino-ethanone]
126 nM | Cc1cc(-c2cnc3c(F)cn(CC(=O)N(C)C)c3c2)ccc1F [Example 92, 2-[3-Fluoro-6-(4-fluoro-3-methyl-phenyl)pyrrolo[3,2-b]pyridin-1-yl]-N,N-dimethyl-acetamide]
39.8 nM | CN(C)C(=O)Cn1cc(F)c2ncc(-c3ccc(F)c(F)c3)cc21 [Example 93, 2-[6-(3,4-Difluorophenyl)-3-fluoro-pyrrolo[3,2-b]pyridin-1-yl]-N,N-dimethyl-acetamide]
63.1 nM | CN(C)C(=O)Cn1cc(F)c2ncc(-c3cc(F)c(F)c(F)c3)cc21 [Example 94, 2-[3-Fluoro-6-(3,4,5-trifluorophenyl)pyrrolo[3,2-b]pyridin-1-yl]-N,N-dimethyl-acetamide]
39.8 nM | CN(C)C(=O)Cn1cc(F)c2ncc(-c3cccc(C(F)F)c3)cc21 [Example 95, 2-[6-[3-(Difluoromethyl)phenyl]-3-fluoro-pyrrolo[3,2-b]pyridin-1-yl]-N,N-dimethyl-acetamide]
50.1 nM | Cc1csc(-c2cnc3c(F)cn(CC(=O)N(C)C)c3c2)c1 [Example 96, 2-[3-Fluoro-6-(4-methyl-2-thienyl)pyrrolo[3,2-b]pyridin-1-yl]-N,N-dimethyl-acetamide]
